Some results are limits rather than exact numbers.

The test addresses T1, human VDR (Homo sapiens, UniProt P11473).
T1 sequence (P11473 1-427): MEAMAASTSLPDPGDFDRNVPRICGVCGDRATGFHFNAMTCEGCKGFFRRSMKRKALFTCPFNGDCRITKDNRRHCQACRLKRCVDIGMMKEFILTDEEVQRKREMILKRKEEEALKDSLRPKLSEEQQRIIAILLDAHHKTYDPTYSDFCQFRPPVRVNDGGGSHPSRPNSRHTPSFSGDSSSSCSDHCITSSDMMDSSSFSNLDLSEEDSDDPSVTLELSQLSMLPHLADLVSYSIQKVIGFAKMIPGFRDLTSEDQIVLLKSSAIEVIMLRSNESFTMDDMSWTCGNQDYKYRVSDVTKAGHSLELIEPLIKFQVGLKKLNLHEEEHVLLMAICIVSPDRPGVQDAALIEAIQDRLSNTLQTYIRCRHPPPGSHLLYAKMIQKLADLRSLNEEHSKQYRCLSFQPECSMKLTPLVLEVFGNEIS
T1 sequence (P19793 1-462 partner): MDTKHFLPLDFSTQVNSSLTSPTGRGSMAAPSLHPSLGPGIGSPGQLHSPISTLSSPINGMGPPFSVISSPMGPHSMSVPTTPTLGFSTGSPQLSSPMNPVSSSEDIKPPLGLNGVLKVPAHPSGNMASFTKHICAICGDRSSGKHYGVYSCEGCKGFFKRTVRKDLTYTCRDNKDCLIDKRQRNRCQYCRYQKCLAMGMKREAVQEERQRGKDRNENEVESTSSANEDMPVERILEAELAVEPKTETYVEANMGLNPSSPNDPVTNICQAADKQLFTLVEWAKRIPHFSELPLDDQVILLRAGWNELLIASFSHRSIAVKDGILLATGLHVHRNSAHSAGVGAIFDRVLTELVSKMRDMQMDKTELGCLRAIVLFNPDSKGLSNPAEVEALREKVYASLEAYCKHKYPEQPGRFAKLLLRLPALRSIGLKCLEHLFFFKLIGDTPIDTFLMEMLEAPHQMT
Kind of test: Evaluation of VDR transcription activity in human osteoblasts (HOS cells), luciferase reporter. The settings on record: Activity (EC50, VDR transcription activity), HOS cells transfected with human VDR, human RXRα and DR3 luciferase reporter; 21 hours.
As to `COC1(C(F)(F)F)CN(C[C@@H](C)[C@H]2CC[C@H]3/C(=C/C=C4C[C@@H](O)C[C@H](O)C4)CCC[C@]23C)C1` [Compound A012, (1R,3R)-5-(2-((1R,3aS,7aR,E)-1-((S)-1-(3-methoxy-3-trifluoromethylazetidin-1-yl)propan-2-yl)-7a-methyloctahydro-4H-inden-4-ylidene)ethylidene)cyclohexane-1,3-diol], the EC50 (usually the concentration that produces a half-maximal response) fell in the range of 0.01 to 0.1 µM. The result for `C[C@H](CN1CC(OC(F)(F)F)C1)[C@H]1CC[C@H]2/C(=C/C=C3C[C@@H](O)C[C@H](O)C3)CCC[C@]12C` [Compound A013] reads 0.1 to 1 µM; that for `C=C1[C@H](O)CC(=C/C=C2\CCC[C@]3(C)[C@@H]([C@H](C)CN4CC(OCC(F)F)C4)CC[C@@H]23)C[C@H]1O` [Compound A016, (1R,3R)-5-(2-((1R,3aS,7aR,E)-1-((S)-1-(3-(2,2-difluoroethoxy)azetidin-1-yl)propan-2-yl)-7a-methyloctahydro-4H-inden-4-ylidene)ethylidene)-2-methylenecyclohexane-1,3-diol], 0.01 to 0.1 µM; that for `C=C1[C@H](O)CC(=C/C=C2\CCC[C@]3(C)[C@@H]([C@H](C)CN4CC(OC(F)F)C4)CC[C@@H]23)C[C@H]1O` [Compound A018], 0.001 to 0.01 µM. As to `C[C@H](CN1CC(CC(F)F)C1)[C@H]1CC[C@H]2/C(=C/C=C3C[C@@H](O)C[C@H](O)C3)CCC[C@]12C` [Compound A021, (1R,3R)-5-(2-((1R,3aS,7aR,E)-1-((S)-1-(3-(2,2-difluoroethyl)azetidin-1-yl)propan-2-yl)-7a-methyloctahydro-4H-inden-4-ylidene)ethylidene)cyclohexane-1,3-diol], the EC50 was 0.1 to 1 µM. The result for `C=C1[C@H](O)CC(=C/C=C2\CCC[C@]3(C)[C@@H]([C@H](C)CCN4CC(O)(C(F)(F)F)C4)CC[C@@H]23)C[C@H]1O` [Compound A023, (1R,3R)-5-(2-((1R,3aS,7aR,E)-1-((R)-4-(3-hydroxy-3-(trifluoromethyl)azetidin-1-yl)butan-2-yl)-7a-methyloctahydro-4H-inden-4-ylidene)ethylidene)-2-methylenecyclohexane-1,3-diol] reads less than 0.001 µM; that for `C[C@H](CCN1CC(OC(F)F)C1)[C@H]1CC[C@H]2/C(=C/C=C3C[C@@H](O)C[C@H](O)C3)CCC[C@]12C` [Compound A025, (1R,3R)-5-(2-((1R,3aS,7aR,E)-1-((R)-4-(3-(difluoromethoxy)azetidin-1-yl)butan-2-yl)-7a-methyloctahydro-4H-inden-4-ylidene)ethylidene)cyclohexane-1,3-diol], 0.1 to 1 µM; that for `COC1(C(F)(F)F)CN(CC[C@@H](C)[C@H]2CC[C@H]3/C(=C/C=C4C[C@@H](O)C[C@H](O)C4)CCC[C@]23C)C1` [Compound A027, (1R,3R)-5-(2-((1R,3aS,7aR,E)-1-((R)-4-(3-methoxy-3-(trifluoromethyl)azetidin-1-yl)butan-2-yl)-7a-methyloctahydro-4H-inden-4-ylidene)ethylidene)cyclohexane-1,3-diol], 0.001 to 0.01 µM. Next, `C[C@H](CCN1CC(OC(F)(F)F)C1)[C@H]1CC[C@H]2/C(=C/C=C3C[C@@H](O)C[C@H](O)C3)CCC[C@]12C` [Compound A028, (1R,3R)-5-(2-((1R,3aS,7aR,E)-7a-methyl-1-((R)-4-(3-(trifluoromethoxy)azetidin-1-yl)butan-2-yl)octahydro-4H-inden-4-ylidene)ethylidene)cyclohexane-1,3-diol]: 0.1 to 1 µM; `C=C1[C@H](O)CC(=C/C=C2\CCC[C@]3(C)[C@@H]([C@H](C)CCN4CC(OC(F)F)C4)CC[C@@H]23)C[C@H]1O` [Compound A030, (1R,3R)-5-(2-((1R,3aS,7aR,E)-1-((R)-4-(3-(difluoromethoxy)azetidin-1-yl)butan-2-yl)-7a-methyloctahydro-4H-inden-4-ylidene)ethylidene)-2-methylenecyclohexane-1,3-diol]: 0.01 to 0.1 µM; `C=C1[C@H](O)CC(=C/C=C2\CCC[C@]3(C)[C@@H]([C@H](C)CN4CC[C@@H](C)C4)CC[C@@H]23)C[C@H]1O` [Compound B003, (1R,3R)-5-(2-((1R,3aS,7aR,E)-7a-methyl-1-((S)-1-((R)-3-methylpyrrolidin-1-yl)propan-2-yl)octahydro-4H-inden-4-ylidene)ethylidene)-2-methylenecyclohexane-1,3-diol]: 0.001 to 0.01 µM. In the case of `C=C1[C@H](O)CC(=C/C=C2\CCC[C@]3(C)[C@@H]([C@H](C)CN4CC[C@H](CC)C4)CC[C@@H]23)C[C@H]1O` [Compound B005, (1R,3R)-5-(2-((1R,3aS,7aR,E)-1-((S)-1-((S)-3-ethylpyrrolidin-1-yl)propan-2-yl)-7a-methyloctahydro-4H-inden-4-ylidene)ethylidene)-2-methylenecyclohexane-1,3-diol], the EC50 was 0.001 to 0.01 µM. The result for `CC[C@@H]1CCN(C[C@@H](C)[C@H]2CC[C@H]3/C(=C/C=C4C[C@@H](O)C[C@H](O)C4)CCC[C@]23C)C1` [Compound B008, (1R,3R)-5-(2-((1R,3aS,7aR,E)-1-((S)-1-((R)-3-ethylpyrrolidin-1-yl)propan-2-yl)-7a-methyloctahydro-4H-inden-4-ylidene)ethylidene)cyclohexane-1,3-diol] reads 0.01 to 0.1 µM; that for `C=C1/C(=C\C=C2/CCC[C@]3(C)[C@@H]([C@@H](C)CN4CCCC4)CC[C@@H]23)C[C@@H](O)C[C@@H]1O` [Compound B009, (1R,3S,Z)-5-(2-((1R,3aS,7aR,E)-7a-methyl-1-((R)-1-(pyrrolidin-1-yl)propan-2-yl)octahydro-4H-inden-4-ylidene)ethylidene)-4-methylenecyclohexane-1,3-diol], 0.1 to 1 µM. The result for `C=C1/C(=C\C=C2/CCC[C@]3(C)[C@@H]([C@@H](C)CN4CC[C@H](C)C4)CC[C@@H]23)C[C@@H](O)C[C@@H]1O` [Compound B010, (1R,3S,Z)-5-(2-((1R,3aS,7aR,E)-7a-methyl-1-((R)-1-((S)-3-methylpyrrolidin-1-yl)propan-2-yl)octahydro-4H-inden-4-ylidene)ethylidene)-4-methylenecyclohexane-1,3-diol] reads 0.01 to 0.1 µM. `C=C1/C(=C\C=C2/CCC[C@]3(C)[C@@H]([C@@H](C)CN4CC[C@@H](C)C4)CC[C@@H]23)C[C@@H](O)C[C@@H]1O` [Compound B011, (1R,3S,Z)-5-(2-((1R,3aS,7aR,E)-7a-methyl-1-((R)-1-((R)-3-methylpyrrolidin-1-yl)propan-2-yl)octahydro-4H-inden-4-ylidene)ethylidene)-4-methylenecyclohexane-1,3-diol] displayed an EC50 of 0.01 to 0.1 µM. Compound `C[C@H](CN1CC[C@H](F)C1)[C@H]1CC[C@H]2/C(=C/C=C3C[C@@H](O)C[C@H](O)C3)CCC[C@]12C` [Compound B012, (1R,3R)-5-(2-((1R,3aS,7aR,E)-1-((S)-1-((S)-3-fluoropyrrolidin-1-yl)propan-2-yl)-7a-methyloctahydro-4H-inden-4-ylidene)ethylidene)cyclohexane-1,3-diol] showed an EC50 of 0.1 to 1 µM. As to `C[C@H](CCN1CC[C@H](F)C1)[C@H]1CC[C@H]2/C(=C/C=C3C[C@@H](O)C[C@H](O)C3)CCC[C@]12C` [Compound B014, (1R,3R)-5-(2-((1R,3aS,7aR,E)-1-((R)-4-((S)-3-fluoropyrrolidin-1-yl)butan-2-yl)-7a-methyloctahydro-4H-inden-4-ylidene)ethylidene)cyclohexane-1,3-diol], the EC50 was 0.01 to 0.1 µM. In the case of `C[C@H](CCN1CC[C@@H](F)C1)[C@H]1CC[C@H]2/C(=C/C=C3C[C@@H](O)C[C@H](O)C3)CCC[C@]12C` [Compound B015, (1R,3R)-5-(2-((1R,3aS,7aR,E)-1-((R)-4-((R)-3-fluoropyrrolidin-1-yl)butan-2-yl)-7a-methyloctahydro-4H-inden-4-ylidene)ethylidene)cyclohexane-1,3-diol], the EC50 was 0.01 to 0.1 µM. `C[C@H](CCCN1CC[C@H](F)C1)[C@H]1CC[C@H]2/C(=C/C=C3C[C@@H](O)C[C@H](O)C3)CCC[C@]12C` [Compound B016, (1R,3R)-5-(2-((1R,3aS,7aR,E)-1-((R)-5-((S)-3-fluoropyrrolidin-1-yl)pentan-2-yl)-7a-methyloctahydro-4H-inden-4-ylidene)ethylidene)cyclohexane-1,3-diol] displayed an EC50 of 0.01 to 0.1 µM. As to `C[C@H](CCCN1CC[C@@H](F)C1)[C@H]1CC[C@H]2/C(=C/C=C3C[C@@H](O)C[C@H](O)C3)CCC[C@]12C` [Compound B017, (1R,3R)-5-(2-((1R,3aS,7aR,E)-1-((R)-5-((R)-3-fluoropyrrolidin-1-yl)pentan-2-yl)-7a-methyloctahydro-4H-inden-4-ylidene)ethylidene)cyclohexane-1,3-diol], the EC50 is 0.01 to 0.1 µM.

The values are drawn from patent US20230348376A1 (TEIJIN PHARMA LIMITED, priority 2020, published 2023).
